Measured values published in PubChem BioAssay AID248 (DTP/NCI, 2004).
Inconclusive results and toxic doses are left out. Rule as the data show it: active = T/C of 150% or more; inactive = T/C below 125%.

Test system: L1210 leukemia ip in BDF1 mice, survival T/C
Assay: NCI In Vivo Anticancer Drug Screen. Data for tumor model L1210 Leukemia (intraperitoneal) in B6D2F1 (BDF1) mice
Conditions: endpoint: mean survival time, higher = longer survival
In short: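 Each compound was tested against a transplantable tumor grown in mice. The endpoint was survival, with treated animals benchmarked against vehicle controls as a simple ratio.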

[1] = dose: 100.0 mg/kg/injection, schedule: Q01DX009 (ip), vehicle: Klucel (hydroxypropylcellulose) (HPC)
[2] = dose: 200.0 mg/kg/injection, schedule: Q01DX009 (ip), vehicle: Klucel (hydroxypropylcellulose) (HPC)
[3] = dose: 100.0 mg/kg/injection, schedule: Q01DX009 (ip), vehicle: saline with Tween-80
[4] = dose: 200.0 mg/kg/injection, schedule: Q01DX009 (ip), vehicle: saline with Tween-80
[5] = dose: 400.0 mg/kg/injection, schedule: Q01DX009 (ip), vehicle: saline with Tween-80
[6] = dose: 100.0 mg/kg/injection, schedule: Q04DX002 (ip), vehicle: Klucel (hydroxypropylcellulose) (HPC)
[7] = dose: 400.0 mg/kg/injection, schedule: Q04DX002 (ip), vehicle: Klucel (hydroxypropylcellulose) (HPC)
[8] = dose: 400.0 mg/kg/injection, schedule: Q01DX009 (ip), vehicle: Klucel (hydroxypropylcellulose) (HPC)
[9] = dose: 100.0 mg/kg/injection, schedule: Q04DX003 (ip), vehicle: Klucel (hydroxypropylcellulose) (HPC)
[10] = dose: 200.0 mg/kg/injection, schedule: Q04DX003 (ip), vehicle: Klucel (hydroxypropylcellulose) (HPC)
[11] = dose: 400.0 mg/kg/injection, schedule: Q04DX003 (ip), vehicle: Klucel (hydroxypropylcellulose) (HPC)
[12] = dose: 50.0 mg/kg/injection, schedule: Q01DX009 (ip), vehicle: saline
[13] = dose: 100.0 mg/kg/injection, schedule: Q01DX009 (ip), vehicle: saline
[14] = dose: 100.0 mg/kg/injection, schedule: Q04DX003 (ip), vehicle: saline with Tween-80
[15] = dose: 200.0 mg/kg/injection, schedule: Q04DX003 (ip), vehicle: saline with Tween-80
[16] = dose: 400.0 mg/kg/injection, schedule: Q04DX003 (ip), vehicle: saline with Tween-80
[17] = dose: 50.0 mg/kg/injection, schedule: Q01DX009 (ip), vehicle: saline with Tween-80
[18] = dose: 100.0 mg/kg/injection, schedule: Q01DX001 (ip), vehicle: saline
[19] = dose: 200.0 mg/kg/injection, schedule: Q01DX001 (ip), vehicle: saline
[20] = dose: 400.0 mg/kg/injection, schedule: Q01DX001 (ip), vehicle: saline
[21] = dose: 100.0 mg/kg/injection, schedule: Q04DX002 (ip), vehicle: saline with Tween-80
[22] = dose: 200.0 mg/kg/injection, schedule: Q04DX002 (ip), vehicle: saline with Tween-80

Measured: T/C

O=C(Oc1ccc2ccc(=O)oc2c1)N(CCCl)CCCl
inactive: dose: 50.0 mg/kg/injection, schedule: Q01DX009 (ip), vehicle: Klucel (hydroxypropylcellulose) (HPC) 97 % of control | [1] 90 % of control | [2] 101 % of control

c1ccc(C2c3cc4ccccc4cc3Oc3ccc4ccccc4c32)cc1 (configuration not stated)
inactive: dose: 75.0 mg/kg/injection, schedule: Q04DX003 (ip), vehicle: other 94 % of control | dose: 300.0 mg/kg/injection, schedule: Q04DX003 (ip), vehicle: other 103 % of control

Cc1cc(NC(=O)SCCOC(=O)COc2ccc(Cl)cc2)ccc1Cl
inactive: [3] 94 % of control | [4] 88 % of control | [5] 90 % of control

CCOC(=O)Cc1c(C(=O)OCC)nnn1-c1ccc([N+](=O)[O-])cc1
inactive: [6] 97 % of control | dose: 200.0 mg/kg/injection, schedule: Q04DX002 (ip), vehicle: Klucel (hydroxypropylcellulose) (HPC) 97 % of control | [7] 93 % of control

O=C(O)C1CCCCC1C(=O)N(Cc1ccccc1)Cc1ccccc1 (configuration not stated)
inactive: [1] 98 % of control | [2] 102 % of control | [8] 90 % of control

COc1ccc(C(=O)c2ccccc2)c(O)c1
inactive: [9] 101 % of control | [10] 97 % of control | [11] 90 % of control

O=[N+]([O-])c1ccc(CSC2=NCCN2)cc1
inactive: dose: 25.0 mg/kg/injection, schedule: Q01DX009 (ip), vehicle: saline 96 % of control | [12] 104 % of control | [13] 98 % of control

Cc1ccccc1C1c2ccccc2C(=O)c2cccc(C)c21 (configuration not stated)
inactive: [3] 101 % of control | [14] 89 % of control | [4] 101 % of control | [15] 102 % of control | [5] 97 % of control | [16] 94 % of control

CC1(c2ccc3ccccc3c2)OCC2(CCC2)CO1
inactive: [6] 97 % of control | [7] 107 % of control

O=C(CC(CC(=O)c1ccccc1)c1ccccc1)c1ccccc1
inactive: dose: 50.0 mg/kg/injection, schedule: Q01DX001 (ip), vehicle: carboxymethylcellulose (CMC) 91 % of control | dose: 100.0 mg/kg/injection, schedule: Q01DX001 (ip), vehicle: carboxymethylcellulose (CMC) 94 % of control | dose: 200.0 mg/kg/injection, schedule: Q01DX001 (ip), vehicle: carboxymethylcellulose (CMC) 94 % of control | dose: 400.0 mg/kg/injection, schedule: Q01DX001 (ip), vehicle: carboxymethylcellulose (CMC) 94 % of control

Cc1ccc(NC(=O)CI)cc1
inactive: dose: 50.0 mg/kg/injection, schedule: Q04DX002 (ip), vehicle: other 100 % of control

Nc1nnnn1-c1ccccc1-c1ccccc1
inactive: [1] 101 % of control | [2] 104 % of control | [8] 114 % of control

S=C1NC(c2cccc(Cl)c2)N2C(=S)NC(c3cccc(Cl)c3)N12 (configuration not stated)
inactive: dose: 25.0 mg/kg/injection, schedule: Q01DX009 (ip), vehicle: gum acacia 95 % of control | dose: 50.0 mg/kg/injection, schedule: Q01DX009 (ip), vehicle: gum acacia 95 % of control | dose: 100.0 mg/kg/injection, schedule: Q01DX009 (ip), vehicle: gum acacia 101 % of control | dose: 100.0 mg/kg/injection, schedule: Q04DX003 (ip), vehicle: gum acacia 101 % of control | dose: 200.0 mg/kg/injection, schedule: Q01DX009 (ip), vehicle: gum acacia 88 % of control | dose: 200.0 mg/kg/injection, schedule: Q04DX003 (ip), vehicle: gum acacia 93 % of control | dose: 400.0 mg/kg/injection, schedule: Q01DX009 (ip), vehicle: gum acacia 87 % of control | dose: 400.0 mg/kg/injection, schedule: Q04DX003 (ip), vehicle: gum acacia 97 % of control

Cc1cccnc1Nc1ncccc1C
inactive: [12] 100 % of control | [13] 96 % of control | dose: 200.0 mg/kg/injection, schedule: Q01DX009 (ip), vehicle: saline 103 % of control

CC1C(Br)C(=O)NC(=O)N1Cc1ccccc1 (configuration not stated)
inactive: dose: 100.0 mg/kg/injection, schedule: Q01DX Z (ip), vehicle: methylcellulose (MC) 92 % of control | dose: 200.0 mg/kg/injection, schedule: Q01DX Z (ip), vehicle: methylcellulose (MC) 94 % of control

c1ccc(-c2cnc(-c3ccccc3)[nH]2)cc1
inactive: [14] 97 % of control | [15] 100 % of control | [16] 100 % of control

Cn1c(=O)c2c(nc(NCC[N+](C)(C)C)n2C)n(C)c1=O
inactive: dose: 15.0 mg/kg/injection, schedule: Q01DX001 (ip), vehicle: saline 92 % of control | dose: 30.0 mg/kg/injection, schedule: Q01DX001 (ip), vehicle: saline 97 % of control

O=[N+]([O-])c1ccc2nc[nH]c2c1
inactive: dose: 25.0 mg/kg/injection, schedule: Q01DX009 (ip), vehicle: saline with Tween-80 89 % of control | [17] 96 % of control

NNC(=O)c1cc(N)nc(Cl)c1
inactive: [18] 96 % of control | [19] 96 % of control | [20] 98 % of control

CCC1=C(c2ccc(OC)cc2)C(C)Oc2cc(OC(C)=O)ccc21 (configuration not stated)
inactive: dose: 50.0 mg/kg/injection, schedule: Q01DX001 (sc), vehicle: steriod suspending solution 101 % of control | dose: 100.0 mg/kg/injection, schedule: Q01DX001 (sc), vehicle: steriod suspending solution 101 % of control | dose: 200.0 mg/kg/injection, schedule: Q01DX001 (sc), vehicle: steriod suspending solution 97 % of control | dose: 400.0 mg/kg/injection, schedule: Q01DX001 (sc), vehicle: steriod suspending solution 103 % of control

Cc1ccc(S(=O)(=O)Oc2cc(C)ccc2C)cc1
inactive: [3] 100 % of control | [9] 97 % of control | [4] 93 % of control | [10] 92 % of control | [5] 101 % of control | [11] 91 % of control

COc1ccc(Cc2cc3cc(OC)c(OC)cc3cn2)cc1OC
inactive: [3] 103 % of control | [14] 93 % of control | [4] 105 % of control | [15] 104 % of control | [5] 121 % of control | [16] 90 % of control

CCOC(=O)C(C)CC(=O)c1ccccc1 (configuration not stated)
inactive: [17] 106 % of control | [3] 107 % of control | [21] 95 % of control | [22] 95 % of control

O=C(O)CC(O)C(Cl)(Cl)Cl (configuration not stated)
inactive: [18] 93 % of control | [19] 104 % of control | [20] 98 % of control

O=C(O)c1ccc2c(c1)C(=O)c1ccccc1C2=O
inactive: [21] 105 % of control | [22] 99 % of control

CC(=O)Nc1ccc(C(C)(C)CC(=O)O)cc1[N+](=O)[O-]
inactive: [17] 90 % of control | [3] 87 % of control | [4] 87 % of control
